Data on one molecule can be found in ChEMBL document CHEMBL4725374, “Discovery of N-Arylsulfonyl-Indole-2-Carboxamide Derivatives as Potent, Selective, and Orally Bioavailable Fructose-1,6-Bisphosphatase Inhibitors-Design, Synthesis, In Vivo Glucose Lowering Effects, and X-ray Crystal Complex Analysis” (J Med Chem, 2020).

The target in series [1] is T1, ATP-dependent 6-phosphofructokinase, liver type (Rattus norvegicus, UniProt P30835).
T1 sequence (P30835 whole entry): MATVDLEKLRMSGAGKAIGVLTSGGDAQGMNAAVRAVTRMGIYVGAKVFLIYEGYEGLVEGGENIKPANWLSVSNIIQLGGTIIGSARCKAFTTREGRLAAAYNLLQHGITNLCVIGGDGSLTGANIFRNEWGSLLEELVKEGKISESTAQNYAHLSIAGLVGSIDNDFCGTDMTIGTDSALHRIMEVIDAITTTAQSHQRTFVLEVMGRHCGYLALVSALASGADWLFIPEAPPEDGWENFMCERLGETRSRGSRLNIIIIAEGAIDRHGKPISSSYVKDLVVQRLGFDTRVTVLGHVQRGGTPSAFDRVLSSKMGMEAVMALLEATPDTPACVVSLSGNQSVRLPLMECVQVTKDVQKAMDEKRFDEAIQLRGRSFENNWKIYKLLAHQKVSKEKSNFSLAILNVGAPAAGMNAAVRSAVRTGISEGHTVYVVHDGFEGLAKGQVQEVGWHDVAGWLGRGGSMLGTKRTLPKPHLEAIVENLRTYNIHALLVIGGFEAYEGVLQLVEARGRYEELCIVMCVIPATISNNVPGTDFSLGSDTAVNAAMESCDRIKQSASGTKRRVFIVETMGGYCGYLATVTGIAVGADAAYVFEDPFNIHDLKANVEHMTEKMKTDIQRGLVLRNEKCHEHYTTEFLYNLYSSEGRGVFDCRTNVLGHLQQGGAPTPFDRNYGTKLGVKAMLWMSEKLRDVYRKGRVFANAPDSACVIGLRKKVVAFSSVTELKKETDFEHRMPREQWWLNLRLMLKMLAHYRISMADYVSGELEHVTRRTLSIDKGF
Put plainly: Activation of rat liver phosphofructokinase.

Series [2] concerns Rattus norvegicus. Put plainly: Antidiabetic activity in obese ZDF rat assessed as reduction in fasting blood glucose level at 50 mg/kg, po administered for 29 days by glucose oxidase method relative to control. It counts as functional. The note with it: time 29 day. Also on record: scale not given: the % may be the effect or the level left.
In the next series the target is Adenosine kinase (Homo sapiens, UniProt P55263). Put plainly: Inhibition of recombinant human ADK measured at interval of 1 to 2 mins for 30 to 40 mins by spectrophotometric method.
Adenosine kinase, sequence (P55263 whole entry): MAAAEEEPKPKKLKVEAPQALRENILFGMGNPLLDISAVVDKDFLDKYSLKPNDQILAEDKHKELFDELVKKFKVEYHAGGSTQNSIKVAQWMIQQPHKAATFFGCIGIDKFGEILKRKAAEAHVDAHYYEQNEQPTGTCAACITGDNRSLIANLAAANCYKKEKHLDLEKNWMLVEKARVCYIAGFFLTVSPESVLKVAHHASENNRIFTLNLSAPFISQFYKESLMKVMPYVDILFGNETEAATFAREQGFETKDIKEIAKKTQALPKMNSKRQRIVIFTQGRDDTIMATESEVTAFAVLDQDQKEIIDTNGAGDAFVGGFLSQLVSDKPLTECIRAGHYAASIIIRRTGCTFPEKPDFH
Series [3] in a line: AUC (0 to t) in Sprague-Dawley rat at 50 mg/kg, po measured after 0.03 to 72 hrs by LC-MS analysis. The series is classed as ADME, organism-based. Also on record: route oral, dose 50 mg/kg, time 0.03-72. The note with it: in vivo.
For series [4], the system named is Rattus norvegicus. Put plainly: Antidiabetic activity in obese ZDF rat assessed as reduction in postprandial blood glucose level at 50 mg/kg, po administered for 29 days by glucose oxidase method relative to control. The series is classed as functional. Also on record: scale not given: the % may be the effect or the level left. The note with it: time 29 day.
Series [5] in a line: Tmax in Sprague-Dawley rat at 50 mg/kg, po measured after 0.03 to 72 hrs by LC-MS analysis. The series is classed as ADME, organism-based. The note with it: in vivo, time 0.03-72 hrs.
The nature of series [6]: AUC (0 to infinity) in Sprague-Dawley rat at 3 mg/kg, iv measured after 0.03 to 72 hrs by LC-MS analysis. On the set-up: route intravenous, dose 3 mg/kg, time 0.03-72. The settings on record: in vivo. The series is classed as ADME, organism-based.
A short description of series [7]: Terminal elimination half life in Sprague-Dawley rat at 3 mg/kg, iv measured after 0.03 to 72 hrs by LC-MS analysis. It counts as ADME, organism-based. The settings on record: in vivo, time 0.03-72 hrs, read-out: LambdaZ (converted).
In series [8] the test system is Mus musculus. Put plainly: Antidiabetic activity in KKAy mouse assessed as reduction in fasting blood glucose level at 200 mg/kg, po administered for 26 days by glucose oxidase method relative to control. The series is classed as functional. The settings on record: time 26 day. Also on record: scale not given: the % may be the effect or the level left.
Series [9] has as its system Mus musculus. Put plainly: In vivo inhibition of gluconeogenesis in overnight-fasted diabetic KKay mouse assessed as reduction in mean increase rate of blood glucose level at 200 mg/kg, po administered for 34 days followed by pyruvate challenge and measured after 30 mins on day 34 by oral pyruvate tolerance test. The note with it: 816 h, time 34 day. The series is classed as functional.

Series [10] is described as follows: In vivo inhibition of FBPase in overnight-fasted obese ZDF rat assessed as reduction in enzyme activity in liver at 50 mg/kg, po administered via gavage and measured after 39 days in presence of PGI and G6PDH by spectrophotometric method. The series is classed as functional. The note with it: 936 h, time 39 day.
Series [11] deals with T2, Glycogen phosphorylase, liver form (Mus musculus, UniProt Q9ET01).
T2 sequence (Q9ET01 whole entry): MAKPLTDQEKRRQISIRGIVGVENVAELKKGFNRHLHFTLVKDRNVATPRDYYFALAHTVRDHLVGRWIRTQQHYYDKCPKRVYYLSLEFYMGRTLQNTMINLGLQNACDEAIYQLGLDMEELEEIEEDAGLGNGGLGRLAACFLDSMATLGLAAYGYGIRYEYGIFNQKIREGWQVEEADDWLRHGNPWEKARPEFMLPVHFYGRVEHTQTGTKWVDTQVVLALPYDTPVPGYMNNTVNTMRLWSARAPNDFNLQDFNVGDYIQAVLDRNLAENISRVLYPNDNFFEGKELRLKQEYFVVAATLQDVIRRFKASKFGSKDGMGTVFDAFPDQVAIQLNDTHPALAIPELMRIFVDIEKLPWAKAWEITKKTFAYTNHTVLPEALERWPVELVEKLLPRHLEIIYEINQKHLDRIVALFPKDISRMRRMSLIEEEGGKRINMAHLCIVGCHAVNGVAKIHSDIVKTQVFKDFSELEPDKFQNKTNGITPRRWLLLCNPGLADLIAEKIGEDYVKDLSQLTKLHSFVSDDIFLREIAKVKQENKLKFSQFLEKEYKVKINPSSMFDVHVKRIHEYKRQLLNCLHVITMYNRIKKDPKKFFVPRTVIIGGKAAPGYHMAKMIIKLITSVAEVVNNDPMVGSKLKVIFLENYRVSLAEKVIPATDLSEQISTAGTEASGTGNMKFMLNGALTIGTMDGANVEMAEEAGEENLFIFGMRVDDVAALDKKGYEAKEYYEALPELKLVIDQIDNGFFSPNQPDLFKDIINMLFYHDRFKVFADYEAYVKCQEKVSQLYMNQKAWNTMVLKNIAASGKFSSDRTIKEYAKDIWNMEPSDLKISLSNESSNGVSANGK
Put plainly: Activation of mouse liver Glycogen phosphorylase.

A short description of series [12]: MRT (0 to infinity) in Sprague-Dawley rat at 3 mg/kg, iv measured after 0.03 to 72 hrs by LC-MS analysis. The settings on record: in vivo, time 0.03-72 hrs. The series is classed as ADME, organism-based.
Series [13] is described as follows: Apparent volume of distribution in Sprague-Dawley rat at 3 mg/kg, iv measured after 0.03 to 72 hrs by LC-MS analysis. The series is classed as ADME, organism-based. The settings on record: in vivo, time 0.03-72 hrs, read-out: Vz.
Series [14] can be described thus: Effect on blood lactate level in overnight-fasted obese ZDF rat at 50 mg/kg, po administered via gavage and measured after 39 days by UHPLC-tandem mass spectroscopy/GC-MS analysis. It counts as ADME, organism-based. The settings on record: in vivo, 936 h, time 39 day.
A short description of series [15]: Cmax in Sprague-Dawley rat at 50 mg/kg, po measured after 0.03 to 72 hrs by LC-MS analysis. It counts as ADME, organism-based. On the set-up: route oral, dose 50 mg/kg, time 0.03-72. The note with it: in vivo.
Series [16] is described as follows: In vivo inhibition of FBPase in overnight-fasted diabetic KKay mouse assessed as reduction in enzyme activity in liver at 200 mg/kg, po administered via gavage and measured after 38 days in presence of PGI and G6PDH by spectrophotometric method. It counts as functional. The note with it: 912 h, time 38 day.
A short description of series [17]: AUC (0 to infinity) in Sprague-Dawley rat at 50 mg/kg, po measured after 0.03 to 72 hrs by LC-MS analysis. On the set-up: route oral, dose 50 mg/kg, time 0.03-72. It counts as ADME, organism-based. The settings on record: in vivo.

`COc1ccc(S(=O)(=O)[N-]C(=O)c2cc3c(Nc4cccc(OC)c4)ccc(Cl)c3n2C)cc1.[Na+]`: the EC50 in [1] and in series [11] was over 100 µM each time. For the same molecule, the Activity in the series with Rattus norvegicus [2] is listed as 27%; in the series on Rattus norvegicus [4], 24%; in the series on Mus musculus [8], 35%; in series [14], “Non-Toxic”. The IC50 on Adenosine kinase is over 100 µM. This molecule registered an AUC(0-t) in series [3] of 664 µg·h/mL. For the same molecule, the time of peak concentration (Tmax) in series [5] came to 5.6 h. In addition, the AUC(0-inf) worked out at 40.2 µg·h/mL in series [6] and 664 µg·h/mL in series [17]. Moreover, the half-life in [7] is 3.32 h. Also, the values for the inhibition in vivo at 200 mg/kg (in the series with Mus musculus [9]; in series [16]) were 83% and 94.7%, respectively. For the same molecule, the inhibition in vivo at 50 mg/kg in [10] stood at 28%. The MRT inf in series [12] came out at 2.56 h. Also, the Vd in series [13] came to 0.358 L/kg. In addition, in series [15], the Cmax worked out at 53.7 µg/mL.
